For series [1], the system named is MEIS1 mRNA in MV4; 11 cells. As to the kind of experiment: Test 3: inhibition of mRNA transcription, MEIS1. The series is classed as cell-based. The conditions noted are these: MEIS1 and HOXA9, MV4, summary of Test 3. The procedure: Test 3: Test for the Inhibition of mRNA Transcription with Test Compounds
MV4; 11 cells were obtained from American Type Culture Collection (ATCC). […] After the incubation, the total RNA was extracted from the cells with RNeasy™ Mini Kit (QIAGEN, 74106), and cDNA was synthesized with Superscript™ VILO™ cDNA Synthesis Kit (Invitrogen, #11754250). By using TaqMan™ Gene Expression Master Mix (Applied Biosystems, 4369016) and TaqMan™ probe (Applied Biosystems), the expression level of mRNA was quantified from the obtained cDNA with 7900HT (Applied Biosystems). The expression level of each obtained gene (MEIS1 and HOXA9) was fitted with the expression level of mRNA of GAPDH.

The target in series [2] is Menin-MLL binding (His-Menin1-615, MLL1-172-FLAG) (Homo sapiens (Human), UniProt O00255). Kind of series: Test 1: inhibition of the Menin-MLL binding (HTRF). The conditions noted are these: summary of Test 1 table. The procedure: Test 1: Test for Evaluating the Inbinition of the Menin-MLL Binding
After the incubation, the signal was detected with RUBYstar (BMG LABTECH).

The target in series [3] is hERG (human Ether-a-go-go Related Gene) (Homo sapiens (Human), UniProt Q12809). As to the kind of experiment: Test 4: hERG inhibition (QPatch HT). The conditions noted are these: for gap between RS4; 11 proliferation IC50 and hERG current IC50: summary of Test 4 table; for IC50: read-out: hERG inhibition IC50, CHO cell strain stably expressing hERG; for hERG/RS4; 11: hERG IC50 divided by RS4, 11 proliferation IC50.

Series [4] relates to RS4; 11 cells. As to the kind of experiment: Test 2: inhibition of cell proliferation, RS4; 11. The conditions noted are these: for cell proliferation inhibition activity (in words): summary of Test 2 (RS4; 11 and MOLM-13). The series is classed as cell-based. On the procedure:
(§1) Test for Evaluating the Inhibition of Cell Proliferation RS4; 11 cells were obtained from American Type Culture Collection (ATCC). […] MOLM-13 cells were separately obtained from DSMZ (Deutsche Sammlung von Mikroorganismen und Zeilkulturen GmbH). […] The cells were plated to a 96-well plate in 2000 cells/well, each test compound was added thereto to adjust the final concentration of DMSO to 0.1% of DMSO, and the cells were cultured for 7 days. After the cultivation, the cell viability was calculated with PrestoBlue™ Cell Viability Reagent (Invitrogen, A13261).

For series [5], the system named is MOLM-13 cells. Kind of series: Test 2: inhibition of cell proliferation, MOLM-13. The conditions noted are these: cultured 7 days, PrestoBlue. The series is classed as cell-based. On the procedure: as §1

As a reminder, the IC50 is the concentration that inhibits the measured activity by half.

“Also recorded” adds a separate entry of the source. Some results are limits rather than exact numbers.

hERG (human Ether-a-go-go Related Gene), sequence (Q12809 whole entry): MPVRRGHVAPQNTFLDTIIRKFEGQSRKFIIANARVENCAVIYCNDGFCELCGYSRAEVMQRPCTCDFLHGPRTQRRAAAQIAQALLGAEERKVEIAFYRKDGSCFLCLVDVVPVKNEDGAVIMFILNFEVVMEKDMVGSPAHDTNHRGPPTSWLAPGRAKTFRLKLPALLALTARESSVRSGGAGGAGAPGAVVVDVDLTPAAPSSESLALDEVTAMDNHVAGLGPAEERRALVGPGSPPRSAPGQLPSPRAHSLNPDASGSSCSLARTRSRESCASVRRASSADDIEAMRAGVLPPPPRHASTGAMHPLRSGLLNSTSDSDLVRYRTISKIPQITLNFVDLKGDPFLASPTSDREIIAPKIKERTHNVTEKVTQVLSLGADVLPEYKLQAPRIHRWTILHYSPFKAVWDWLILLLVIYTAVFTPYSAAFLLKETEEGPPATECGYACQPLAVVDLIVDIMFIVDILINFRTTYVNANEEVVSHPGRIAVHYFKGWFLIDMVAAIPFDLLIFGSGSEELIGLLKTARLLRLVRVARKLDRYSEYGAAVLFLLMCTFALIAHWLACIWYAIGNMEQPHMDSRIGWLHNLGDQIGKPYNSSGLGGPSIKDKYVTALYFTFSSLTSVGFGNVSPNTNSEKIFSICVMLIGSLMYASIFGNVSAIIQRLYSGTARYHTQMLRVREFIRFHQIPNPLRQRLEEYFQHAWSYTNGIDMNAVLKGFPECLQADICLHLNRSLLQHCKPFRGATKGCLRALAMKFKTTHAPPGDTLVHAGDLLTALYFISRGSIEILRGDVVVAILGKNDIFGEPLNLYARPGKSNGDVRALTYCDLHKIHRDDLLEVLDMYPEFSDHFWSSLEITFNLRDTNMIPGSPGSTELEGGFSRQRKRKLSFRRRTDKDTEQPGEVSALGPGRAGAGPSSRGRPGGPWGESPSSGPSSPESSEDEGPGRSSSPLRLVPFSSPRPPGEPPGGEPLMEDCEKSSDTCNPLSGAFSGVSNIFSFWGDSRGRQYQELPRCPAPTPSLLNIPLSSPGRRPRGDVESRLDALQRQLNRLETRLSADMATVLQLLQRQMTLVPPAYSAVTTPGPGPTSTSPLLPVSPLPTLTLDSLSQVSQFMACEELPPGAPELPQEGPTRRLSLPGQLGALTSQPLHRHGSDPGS
Menin-MLL binding (His-Menin1-615, MLL1-172-FLAG), sequence (O00255 other isoform, or with tags, fused parts or gaps): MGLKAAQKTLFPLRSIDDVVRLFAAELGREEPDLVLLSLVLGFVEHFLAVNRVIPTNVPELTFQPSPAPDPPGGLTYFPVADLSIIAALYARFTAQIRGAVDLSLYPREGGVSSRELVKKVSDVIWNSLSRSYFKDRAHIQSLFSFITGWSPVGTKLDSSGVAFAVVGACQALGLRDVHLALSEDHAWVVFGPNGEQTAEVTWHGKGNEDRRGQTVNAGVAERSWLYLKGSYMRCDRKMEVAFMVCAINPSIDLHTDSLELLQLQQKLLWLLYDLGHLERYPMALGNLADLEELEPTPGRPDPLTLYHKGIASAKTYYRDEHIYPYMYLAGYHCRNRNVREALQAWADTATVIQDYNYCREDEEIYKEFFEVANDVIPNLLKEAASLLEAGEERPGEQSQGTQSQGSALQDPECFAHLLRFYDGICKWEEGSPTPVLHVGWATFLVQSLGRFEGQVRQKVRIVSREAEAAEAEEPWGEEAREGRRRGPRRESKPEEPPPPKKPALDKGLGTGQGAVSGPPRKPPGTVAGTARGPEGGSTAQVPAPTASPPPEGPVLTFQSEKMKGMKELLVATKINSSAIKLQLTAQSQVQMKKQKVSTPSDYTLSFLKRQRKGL

Take `CC(C)N(C(=O)c1cc(F)ccc1Oc1cncnc1N1CC2(CCN(C(=O)[C@H]3N[C@H]4CC[C@@H]3C[C@@H]4CC3CC3)CC2)C1)C(C)C` [Example 1, 2-[(4-{7-[(1S,3S,4R,6S)-6-(Cyclopropylmethyl)-2-azabicyclo[2.2.2]octane-3-carbonyl]-2,7-diazaspiro[3.5]nonan-2-yl}pyrimidin-5-yl)oxy]-5-fluoro-N,N-di(propan-2-yl)benzamide]: the “mRNA transcription inhibition activity (in words)” value in series [1] was “showed the mRNA transcription inhibition activity”. Further, the “Menin-MLL binding inhibition activity (in words)” value in series [2] is given as “potent”. The “gap between RS4; 11 proliferation IC50 and hERG current IC50” value (from here on “gap between RS4”) in series [3] is “more than 100 fold”. The “cell proliferation inhibition activity (in words)” value in series [4] is on record as “potent”.

Turning to `CC(C)N(C(=O)c1cc(F)ccc1Oc1cncnc1N1CC2(CCN(C(=O)[C@H]3N[C@H]4CC[C@@H]3C(=O)C4)CC2)C1)C(C)C` [Example 12, 5-fluoro-2-[(4-{7-[(1S,3S,4S)-5-oxo-2-azabicyclo[2.2.2]octane-3-carbonyl]-2,7-diazaspiro[3.5]nonan-2-yl}pyrimidin-5-yl)oxy]-N,N-di(propan-2-yl)benzamide], the “gap between RS4” value in series [3] is on record as “more than 100 fold”.

Regarding “5-fluoro-2-[(4-{7-[(1S,3S,4R)-5-methylidene-2-azabicyclo[2.2.1]heptane-3-carbonyl]-2,7-diazaspiro[3.5]nonan-2-yl}pyrimidin-5-yl)oxy]-N,N-di(propan-2-yl)benzamide [Example 18]”, the IC50 in series [5] stood at 40 nM; in series [3], 46100 nM. For the same molecule, in series [4], the “cell proliferation inhibition activity (in words)” value is on record as “potent”.

As to “2-[(4-{6-[(1R,3S,4S)-2-azabicyclo[2.2.1]heptane-3-carbonyl]-2,6-diazaspiro[3.3]heptan-2-yl}pyrimidin-5-yl)oxy]-5-fluoro-N,N-di(propan-2-yl)benzamide [Example 15]”, in series [3], the concentration for half-maximal inhibition (IC50) is above 100000 nM. In addition, the “cell proliferation inhibition activity (in words)” value in series [4] is on record as “potent”.

For `CC(C)N(C(=O)c1cc(F)ccc1Oc1cncnc1N1CC2(CCN(C(=O)[C@H]3N[C@H]4CC[C@@H]3[C@H](F)[C@@H]4CC3CC3)CC2)C1)C(C)C` [Example 19, 2-[(4-{7-[(1S,3S,4S,5R,6R)-6-(cyclopropylmethyl)-5-fluoro-2-azabicyclo[2.2.2]octane-3-carbonyl]-2,7-diazaspiro[3.5]nonan-2-yl}pyrimidin-5-yl)oxy]-5-fluoro-N,N-di(propan-2-yl)benzamide], in series [3], the “hERG/RS4; 11” value was above 690; the “gap between RS4” value was “more than 100 fold”. Besides, the “cell proliferation inhibition activity (in words)” value in series [4] was “potent”.

With `C=C1C[C@H]2CC[C@@H]1N[C@@H]2C(=O)N1CCC2(CC1)CN(c1ncncc1Oc1ccc(F)cc1C(=O)N(C(C)C)C(C)C)C2` [Example 8, 5-fluoro-2-[(4-{7-[(1S,3S,4R)-6-methylidene-2-azabicyclo[2.2.2]octane-3-carbonyl]-2,7-diazaspiro[3.5]nonan-2-yl}pyrimidin-5-yl)oxy]-N,N-di(propan-2-yl)benzamide], the “gap between RS4” value in series [3] is on record as “more than 100 fold”.

In the case of `CC(C)N(C(=O)c1cc(F)ccc1Oc1cncnc1N1CC2(CCN(C(=O)[C@H]3N[C@H]4CC[C@@H]3C[C@H]4CC3CC3)CC2)C1)C(C)C` [Example 4, 2-[(4-{7-[(1S,3S,4R,6R)-6-(cyclopropylmethyl)-2-azabicyclo[2.2.2]octane-3-carbonyl]-2,7-diazaspiro[3.5]nonan-2-yl}pyrimidin-5-yl)oxy]-5-fluoro-N,N-di(propan-2-yl)benzamide], in series [1], the “mRNA transcription inhibition activity (in words)” value is “showed the mRNA transcription inhibition activity”. In addition, the “Menin-MLL binding inhibition activity (in words)” value in series [2] is listed as “potent”. Also, the “gap between RS4” value in series [3] is “more than 100 fold”. Also, in series [4], the “cell proliferation inhibition activity (in words)” value is “potent”.

Take `CC(C)N(C(=O)c1cc(F)ccc1Oc1cncnc1N1CC2(CN(C(=O)[C@H]3N[C@H]4CC[C@@H]3C[C@@H]4CC3CC3)C2)C1)C(C)C` [Example 3, 2-[(4-{6-[(1S,3S,4R,6S)-6-(cyclopropylmethyl)-2-azabicyclo[2.2.2]octane-3-carbonyl]-2,6-diazaspiro[3.3]heptan-2-yl}pyrimidin-5-yl)oxy]-5-fluoro-N,N-di(propan-2-yl)benzamide]: in series [1], the “mRNA transcription inhibition activity (in words)” value is reported as “showed the mRNA transcription inhibition activity”. In series [2], the “Menin-MLL binding inhibition activity (in words)” value is “particularly potent”. Also, the “gap between RS4” value in series [3] is given as “more than 100 fold”. Further, the “cell proliferation inhibition activity (in words)” value in series [4] is “potent”.

With `CC(C)N(C(=O)c1cc(F)ccc1Oc1cncnc1N1CC2(CN(C(=O)[C@H]3N[C@H]4CC[C@@H]3[C@@H](F)C4)C2)C1)C(C)C` [Example 10, 5-fluoro-2-[(4-{6-[(1S,3S,4S,5S)-5-fluoro-2-azabicyclo[2.2.2]octane-3-carbonyl]-2,6-diazaspiro[3.3]heptan-2-yl}pyrimidin-5-yl)oxy]-N,N-di(propan-2-yl)benzamide], in series [1], the “mRNA transcription inhibition activity (in words)” value is reported as “showed the mRNA transcription inhibition activity”. In series [2], the “Menin-MLL binding inhibition activity (in words)” value was “particularly potent”. The “gap between RS4” value in series [3] was “more than 100 fold”. Moreover, the “cell proliferation inhibition activity (in words)” value in series [4] is on record as “potent”.

With `C=C1C[C@H]2CC[C@@H]1N[C@@H]2C(=O)N1CC2(C1)CN(c1ncncc1Oc1ccc(F)cc1C(=O)N(C(C)C)C(C)C)C2` [Example 9, 5-fluoro-2-[(4-{6-[(1S,3S,4R)-6-methylidene-2-azabicyclo[2.2.2]octane-3-carbonyl]-2,6-diazaspiro[3.3]heptan-2-yl}pyrimidin-5-yl)oxy]-N,N-di(propan-2-yl)benzamide], the “gap between RS4” value in series [3] is “more than 100 fold”.

As to `CC(C)N(C(=O)c1cc(F)ccc1Oc1cncnc1N1CC2(CN(C(=O)[C@H]3N[C@H]4CC[C@@H]3C[C@H]4CC3CC3)C2)C1)C(C)C` [Example 5, 2-[(4-{6-[(1S,3S,4R,6R)-6-(cyclopropylmethyl)-2-azabicyclo[2.2.2]octane-3-carbonyl]-2,6-diazaspiro[3.3]heptan-2-yl}pyrimidin-5-yl)oxy]-5-fluoro-N,N-di(propan-2-yl)benzamide], in series [1], the “mRNA transcription inhibition activity (in words)” value is “showed the mRNA transcription inhibition activity”. In series [2], the “Menin-MLL binding inhibition activity (in words)” value is on record as “potent”. For the same molecule, the “gap between RS4” value in series [3] was “more than 100 fold”. For the same molecule, the “cell proliferation inhibition activity (in words)” value in series [4] was “potent; also recorded: excellent”.

On to `C=C1C[C@@H]2CC[C@H]1[C@@H](C(=O)N1CCC3(CC1)CN(c1ncncc1Oc1ccc(F)cc1C(=O)N(C(C)C)C(C)C)C3)N2` [Example 6, 5-Fluoro-2-[(4-{7-[(1S,3S,4R)-5-methylidene-2-azabicyclo[2.2.2]octane-3-carbonyl]-2,7-diazaspiro[3.5]nonan-2-yl}pyrimidin-5-yl)oxy]-N,N-di(propan-2-yl)benzamide], for which, in series [1], the “mRNA transcription inhibition activity (in words)” value is listed as “showed the mRNA transcription inhibition activity”.

For the molecule `CC(C)N(C(=O)c1cc(F)ccc1Oc1cncnc1N1CC2(CCN(C(=O)[C@H]3N[C@H]4CC[C@@H]3[C@@H](F)[C@H]4CC3CC3)CC2)C1)C(C)C` [Example 14, 2-[(4-{7-[(1S,3S,4S,5S,6S)-6-(cyclopropylmethyl)-5-fluoro-2-azabicyclo[2.2.2]octane-3-carbonyl]-2,7-diazaspiro[3.5]nonan-2-yl}pyrimidin-5-yl)oxy]-5-fluoro-N,N-di(propan-2-yl)benzamide], in series [5] (Homo sapiens), 40 nM corresponded to half-maximal inhibition (IC50). In addition, in series [3], the “hERG/RS4; 11” value is on record as 557; the “gap between RS4” value is “more than 100 fold”. The same molecule displayed an IC50 in series [4] (Homo sapiens, RS4, 11 cells, cultured 7 days, PrestoBlue) of 20 nM. Further, the “cell proliferation inhibition activity (in words)” value in series [4] was “potent”.

Regarding “2-[(4-{7-[(1R,3S,4S)-2-azabicyclo[2.2.1]heptane-3-carbonyl]-2,7-diazaspiro[3.5]nonan-2-yl}pyrimidin-5-yl)oxy]-5-fluoro-N,N-di(propan-2-yl)benzamide [Example 16]”, the IC50 in series [5] is 40 nM; in series [3], above 100000 nM. Moreover, the “cell proliferation inhibition activity (in words)” value in series [4] was “potent”.

The record behind these values is US11369605B2, “Optically active azabicyclo ring derivative” (priority 2018, dated 2022).
